Measured values from patent publication US8877775B2, “Substituted 2-aza-bicyclo[2.2.2]octane-3-carboxylic acid (benzyl-cyano-methyl)-amides inhibitors of cathepsin C” (Boehringer Ingelheim International GmbH, priority 2013, dated 2014).

How the values were obtained:
[1] = Metabolic stability with human liver microsomes; type: in vitro ADME; conditions: pH 7.6; pooled human liver microsomes, 37° C., 1 μM test compound, 1 mg/ml protein, NADPH; read-out: In vitro stability in human liver microsome incubations t1/2
Procedure: Determination of Metabolic Stability with Human Liver Microsomes
The metabolic degradation of the test compound is assayed at 37° C. with pooled human liver microsomes. The final incubation volume of 100 μl per time point contains TRIS buffer pH 7.6 (0.1 M), magnesium chloride (5 mM), microsomal protein (1 mg/ml) and the test compound at a final concentration of 1 μM. Following a short preincubation period at 37° C., the reactions are initiated by addition of beta-nicotinamide adenine dinucleotide phosphate, reduced form (NADPH, 1 mM) and terminated by transfering an aliquot into acetonitrile after different time points. Additionally, the NADPH-independent degradation is monitored in incubations without NADPH, terminated at the last time point. The [%] remaining test compound after NADPH independent incubation is reflected by the parameter c(control) (metabolic stability). The quenched incubations are pelleted by centrifugation (10′000 g, 5 min). An aliquot of the supernatant is assayed by LC-MS/MS for the amount of parent compound.
The half-life (t1/2 INVITRO) is determined by the slope of the semilogarithmic plot of the concentration-time profile. The intrinsic clearance (CL_[…]) is calculated by considering the amount of protein in the incubation: CL_[…][μl/min/mg protein]=(In 2/(half-life[min]*protein content[mg/ml]))*1′000. The half-life (t1/2 INVITRO) values of selected compounds in the metabolic stability assay described above are listed in the following table

[2] = target: recombinant human DPPI (Cathepsin C) (Homo sapiens (Human), UniProt P53634); assay: Inhibition of human DPPI (Cathepsin C); type: biochemical; conditions: substrate Gly-Arg-AMC 50 μM, 30 min, room temperature
Description: Inhibition of Human DPPI (Cathepsin C)
Materials: Microtiterplates (Optiplate-384 F) were purchased from PerkinElmer (Prod. No. 6007270). The substrate Gly-Arg-AMC was from Biotrend (Prod.-No. 808756 Custom peptide). Bovine serum albumin (BSA; Prod. No. A3059) and Dithiothreitol (DTT; Prod. No D0632) were from Sigma. TagZyme buffer was from Riedel-de-Haen (Prod.-No. 04269), NaCl was from Merck (Prod.-No. 1.06404.1000) and morpholinoethane sulfonic acid (MES), was from Serva (Prod.-No. 29834). The DPP1 inhibitor Gly-Phe-DMK was purchased from MP Biomedicals (Prod.-No. 03DK00625). The recombinant human DPPI was purchased from Prozymex. All other materials were of highest grade commercially available.
The following buffers were used: MES buffer: 25 mM MES, 50 mM NaCl, 5 mM DTT, adjusted to pH 6.0, containing 0.1% BSA; TAGZyme Buffer: 20 mM NaH2PO4, 150 mM NaCl adjusted to pH 6.0 with HCl
The recombinant human DPPI was diluted in TAGZyme buffer to 1 U/ml (38.1 μg/ml, respectively), and then activated by mixing in a 1:2 ratio with a Cysteamine aqueous solution (2 mM) and incubating for 5 min at room temperature.
Five uL test compound (final concentration 0.1 nM to 100 μM) in aqua bidest (containing 4% DMSO, final DMSO concentration 1%) were mixed with 10 μL of DPPI in MES buffer (final concentration 0.0125 ng/μL) and incubated for 10 min. Then, 5 μL of substrate in MES buffer (final concentration 50 μM) were added. The microtiter plates were then incubated at room temperature for 30 min. Then, the reaction was stopped by adding 10 μL of Gly-Phe-DMK in MES-buffer (final concentration 1 μM). The fluorescence in the wells was determined using a Molecular Devices SpectraMax M5 Fluorescence Reader (Ex 360 nm, Em 460 nm) or an Envision Fluorescence Reader (Ex 355 nm, Em 460 nm).
The analysis of the data was performed by calculating the percentage of fluorescence in the presence of test compound in comparison to the fluorescence of the vehicle control after subtracting the background fluorescence using the following formula: (RFU(sample)−RFU(background))*100/(RFU(control)−RFU(background))
Data from these calculations were used to generate IC50 values for inhibition of DPPI, respectively.

recombinant human DPPI (Cathepsin C), sequence (P53634 231-394): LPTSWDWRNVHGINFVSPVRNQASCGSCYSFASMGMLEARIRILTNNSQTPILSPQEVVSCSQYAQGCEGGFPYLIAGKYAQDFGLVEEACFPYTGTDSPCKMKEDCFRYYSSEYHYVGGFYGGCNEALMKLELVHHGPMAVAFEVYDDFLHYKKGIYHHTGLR
recombinant human DPPI (Cathepsin C), sequence (P53634 395-463): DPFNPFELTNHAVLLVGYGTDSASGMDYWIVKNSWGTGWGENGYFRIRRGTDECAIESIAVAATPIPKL
recombinant human DPPI (Cathepsin C), sequence (P53634 25-134): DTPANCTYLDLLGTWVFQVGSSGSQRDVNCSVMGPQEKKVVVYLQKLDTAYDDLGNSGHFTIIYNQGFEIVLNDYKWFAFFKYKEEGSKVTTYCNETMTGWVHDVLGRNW

| SMILES | half-life at 1 μM [1] [h] | IC50 [2] [nM] |
| --- | --- | --- |
| N#Cc1ccc(-c2ccc(C[C@@H](C#N)NC(=O)[C@H]3N[C@H]4CC[C@@H]3CC4)cc2)cc1F [Example 7, (2S)—N-[(1S)-1-cyano-2-[4-(4-cyano-3-fluoro-phenyl)phenyl]ethyl]-3-azabicyclo[2.2.2]octane-2-carboxamide] | > 2.17 | 66.4 |
| CS(=O)(=O)c1cc(-c2ccc(C[C@@H](C#N)NC(=O)[C@H]3NC4CCC3CC4)cc2)ccc1C#N [Example 8] | > 2.17 | 70.2 |
| CS(=O)(=O)c1cccc(-c2ccc(C[C@@H](C#N)NC(=O)[C@H]3NC4CCC3CC4)cc2)c1 [Example 10] | > 2.17 | 73.5 |
| N#C[C@H](Cc1ccc(-c2ccc3c(c2)CNC3=O)cc1)NC(=O)[C@H]1NC2CCC1CC2 [Example 11] | > 2.17 | 86.7 |

The remaining molecules from weak to strong by IC50 [2], led by results:

| half-life at 1 μM [1] [h] | IC50 [2] [nM] | SMILES |
| --- | --- | --- |
| 1.07 | 97.4 | CS(=O)(=O)Nc1cccc(-c2ccc(C[C@@H](C#N)NC(=O)[C@H]3NC4CCC3CC4)cc2)c1 [Example 12] |
| 2 | 50.1 | N#C[C@H](Cc1ccc(-c2ccc3c(c2)NC(=O)C3)cc1)NC(=O)[C@H]1NC2CCC1CC2 [Example 2, (2S)—N-[(1S)-cyano-2-[4-(2-oxoindolin-6-yl)phenyl]ethyl]-3-azabicyclo[2.2.2]octane-2-carboxamide] |
| 1.47 | 32.2 | CN1C(=O)Cc2ccc(-c3ccc(C[C@@H](C#N)NC(=O)[C@H]4N[C@H]5CC[C@@H]4CC5)cc3)cc21 [Example 4] |
